# From article PMC6405172, “In vitro activity and mode of action of phenolic compounds on Leishmania donovani” (PLoS Neglected Tropical Diseases, 2019)
# Legend:
# [1] = system: Leishmania iron transporter 1 (LIT1); assay: RT-qPCR mRNA expression of LIT1; type: cell-based, Leishmania donovani; details: promastigotes, 24 hours; for LIT1 Relative quantity: Fig 7A
# Procedure: (§1) Promastigotes (1 x 10^7 cells) were separately treated with rosmarinic acid, apigenin, amphotericin B and deferoxamine, harvested after 24 hours incubation at 25°C. The parasites were then pelleted by centrifugation at 239 × g for 10 min and the pellet was re-suspended in 1 mL TRIzol. Samples were incubated overnight at -80°C and total RNA was extracted as described by the manufacturer’s protocol using Quick-RNA MiniPrep Plus (Zymo Research, USA). Purity of total RNA was determined to be approximately 2.0 using a Nanodrop. The oligonucleotide primers for the amplification of the iron dependent enzymes—ribonucleotide reductase (RNR) (3’[…] and 5’CAACAACTTCTGCGCATCG), iron superoxide dismutase A (FeSOD) (3’[…] and 5’[…]) and Leishmania iron transporter 1 (LIT1) (3’[…] and 5’ […]) were designed using sequences of Leishmania reference genome from tritrypdb.org (http://tritrypdb.org/tritrypdb/) and Primer 3 software. The oligonucleotide primers used in amplifying the housekeeping gene Histone 2A were (3’ […] and 5’[…]). The RT-qPCR reaction was conducted as described by manufacturer’s protocol with final concentrations of oligonucleotide primers as 0.4 μM, 1x Luna Universal One-Step Reaction mix, 1x Luna WarmStart RT Enzyme Mix and template RNA ≤ 1 μg. All the RT-PCR products were standardized with respect to the endogenous control, Histone 2A. The levels of the mRNA transcripts were obtained using the QuantStudio 5 Real-Time PCR System (Applied Biosystems). The data represent three independent experiments done in triplicate and a fold change in gene expression of >2 was considered significant.
# [2] = system: Leishmania donovani promastigotes; assay: Iron content analysis by atomic absorption spectroscopy; type: cell-based; details: 24 hours; 4x IC50 (amphotericin B IC50)
# Procedure: The parasites were then washed twice with 1x PBS and resuspended in 50 μl deionized water. An aliquot (10 μl) of the parasite suspension was used for protein content determination as described by. The remaining parasite sample (40 μl) was digested with HNO3 for 1 hour at 80°C and overnight at 20°C. Cell digestions were stopped by the addition of 30% H2O2 and topped up to 1.5 ml with deionized water. Iron content in digested samples, spent and unused media were measured by atomic absorption spectroscopy using a Perkin Elmer Analyst 300 spectrometer.
# [3] = system: L. donovani promastigotes; assay: Promastigote mitochondria integrity (MitoTracker Red CMXROS); type: cell-based, Leishmania donovani; details: 24 hours; 2x IC50 (amphotericin B 1/2 IC50)
# Procedure: After incubation, the promastigotes were harvested and resuspended in serum-free M199/1%BSA. MitoTracker Red CMXROS (a cationic fluorescent dye that labels the mitochondria within live cells) at 100 nM was added and incubated for 30 min. Parasites were washed once with serum-free M199/1% BSA, pelleted by centrifugation at 1500 rpm for 10 min, resuspended in 1x vPBS and 6% paraformaldehyde and incubated at 4°C for 1 hour. The promastigote pellets were washed twice and resuspended in 1xPBS. The parasites were then allowed to settle on poly-L-lysine coated slides and DAPI stain (0.1μg/mL) was added followed by one wash in 1x PBS. Coverslips were mounted onto the slides using Vectashield mounting media and observed under the Olympus fluorescent microscope to detect any abnormalities in the structure of the mitochondria. The total number of parasites was determined by direct counting of parasites per field, using ImageJ Software. Parasites with distorted mitochondria were visually determined by counting parasites that had any abnormalities in the structure of the mitochondria compared to the untreated control.
# [4] = system: Leishmania donovani promastigotes; assay: Promastigote viability assay (MTT); type: cell-based; details: for Selectivity Index (CC50/IC50), promastigotes: CC50 Raw 264.7 / IC50 promastigotes; for IC50: Leishmania donovani, MTT, 72 hours at 25°C, read-out: Promastigotes IC50 (μM) ± SD
# Procedure: The MTT assay was done as previously described. Briefly, promastigotes (2 x 10^5 cells) were cultured in freshly prepared M-199 medium supplemented with 10% heat inactivated fetal bovine serum in the presence or absence of varying concentrations of the phenolic compounds (0–50 μg/mL) for 72 hours at 25°C. Amphotericin B (0–50 μg/mL) and deferoxamine (0–50 μg/mL) were used as positive controls. After incubation, 5 mg/mL MTT solution was added to the promastigotes in each well and incubated for 3 hours at 25°C. In this assay, the yellow tetrazolium MTT dye was reduced to insoluble formazan crystals (purple color) in living cells using NADH as their reducing agent. Formazan crystals formed after incubation were solubilized with acidified isopropanol and incubated at 37°C for 30 min. The change in color from yellow to purple was read at an absorbance of 570 nm using Thermo Scientific Varioskan LUX. The cell viability and IC50 were determined from the concentration response curve generated using GraphPad Prism 6.0 Software.
# [5] = Cytotoxicity of compounds on mammalian cells (MTT); type: cell-based; details: mouse, Raw 264.7 macrophage cells, Raw 264.7 cells, read-out: Macrophages CC50 (μM) ±SD
# Procedure: Raw 264.7 cells were seeded into 96-well plates at (1 x 10^6 cells) in DMEM supplemented with 10% FBS, 100 μg/mL streptomycin, 100 u/mL penicillin-G, 2g/L NaHCO3 and incubated at 37°C for 24 hours in 5% CO2. The cells were treated with 0–50 μg/mL concentrations of the phenolic compounds for 48 hours at 37°C in 5% CO2. Deferoxamine and amphotericin B at 0–50 μg/mL concentrations were used as positive controls. Cell viability was estimated by measuring the mitochondria oxidative activity by MTT assay and absorbance was read at 570 nm using Thermo Scientific Varioskan LUX. Selectivity index (SI) was calculated as the ratio of the CC50 to IC50 values.
# [6] = system: ribonucleotide reductase (RNR); assay: RT-qPCR mRNA expression of RNR; type: cell-based, Leishmania donovani; details: promastigotes, 24 hours; for RNR Relative quantity: Fig 7C
# Procedure: as §1
# [7] = system: L. donovani promastigotes; assay: Morphology analysis (DAPI, microscopy); type: cell-based, Leishmania donovani; details: 24 hours; for parasites with rounded morphology, aggregated kinetoplast and nuclear DNA: 2x IC50
# Procedure: The cell pellets were then washed twice and resuspended in 1x PBS. The cells were then allowed to settle on poly-L-lysine coated slides and then rinsed with 1x PBS. Tris-HCl (100 mM) pH 7.5 in 1x PBS was used to block the PFA for 10 minutes. DAPI stain (0.1μg/mL) was added followed by one wash in 1x PBS. Coverslips were mounted onto the slides using Vectashield mounting media and observed under the Olympus fluorescent microscope to detect any phenotypic changes in L. donovani promastigotes. The total number of parasites was determined by direct counting of parasites per field, using ImageJ Software. The frequency of parasites was visually determined by counting parasites that had any abnormalities in their structure compared to the untreated control.
structure (smiles),measurement,setting,value
"O=c1cc(-c2ccc(O)cc2)oc2cc(O)cc(O)c12 [Apigenin, apigenin]",LIT1 mRNA expression versus untreated,[1],no observed change
same,LIT1 Relative quantity,[1],0.8
same,concentration of iron in the spent media,[2],0.11 mg/L
same,intracellular iron levels in promastigotes,[2],0.1 mg/L
same,promastigotes with mitotracker dye accumulating in the cytoplasm (distorted mitochondrion),[3],75.8%
same,"Selectivity Index (CC50/IC50), promastigotes",[4],10.45
same,IC50,[4],22.77 ± 0.01 µM
same,CC50 at 48 h,[5],237.9 ± 0.03 µM
same,increased expression of RNR,[6],3 fold
same,RNR Relative quantity,[6],2.5
"C[C@@H]1[C@H](O)[C@@H](C)/C=C/C=C/C=C/C=C/C=C/C=C/C=C/[C@H](O[C@@H]2O[C@H](C)[C@@H](O)[C@H](N)[C@@H]2O)C[C@@H]2O[C@](O)(C[C@@H](O)C[C@@H](O)[C@H](O)CC[C@@H](O)C[C@@H](O)CC(=O)O[C@H]1C)C[C@H](O)[C@H]2C(=O)O [Amphotericin B, reference compound]",LIT1 mRNA expression versus untreated,[1],5 fold
same,LIT1 Relative quantity,[1],4.7
same,"parasites showing irregular shape, severe distortion in the cell membrane, loss of kinetoplast DNA",[7]; half the IC50,90%
same,concentration of iron in the spent media,[2],0.07 mg/L
same,intracellular iron levels in promastigotes,[2],0.15 mg/L
same,promastigotes with mitotracker dye accumulating in the cytoplasm (distorted mitochondrion),[3],99%
same,IC50,[4],6.56 ± 0.06 µM
same,CC50 at 48 h,[5],15.75 ± 0.03 µM
same,increased expression of RNR,[6],3 fold
same,RNR Relative quantity,[6],3.2
"O=C(/C=C/c1ccc(O)c(O)c1)O[C@H](Cc1ccc(O)c(O)c1)C(=O)O [Rosmarinic acid, rosmarinic acid]",LIT1 mRNA expression versus untreated,[1],3 fold
same,LIT1 Relative quantity,[1],3.0
same,"parasites with rounded morphology, aggregated kinetoplast and nuclear DNA",[7],70%
same,concentration of iron in the spent media,[2],0.09 mg/L
same,intracellular iron levels in promastigotes,[2],0.30 mg/L
same,promastigotes with mitotracker dye accumulating in the cytoplasm (distorted mitochondrion),[3],70%
same,"Selectivity Index (CC50/IC50), promastigotes",[4],15.03
same,IC50,[4],16.34 ± 0.1 µM
same,CC50 at 48 h,[5],245.6 ± 0.3 µM
same,decrease in the expression of RNR,[6],90 % reduction
same,RNR Relative quantity,[6],0.1
"CC(=O)N(O)CCCCCNC(=O)CCC(=O)N(O)CCCCCNC(=O)CCC(=O)N(O)CCCCCN [Deferoxamine, deferoxamine, reference compound]",LIT1 mRNA expression versus untreated,[1],125 fold
same,LIT1 Relative quantity,[1],125
same,"parasites with rounded morphology, aggregated kinetoplast and nuclear DNA",[7],90%
same,concentration of iron in the spent media,[2],0.08 mg/L
same,intracellular iron levels in promastigotes,[2],0.36 mg/L
same,promastigotes with mitotracker dye accumulating in the cytoplasm (distorted mitochondrion),[3],81%
same,"Selectivity Index (CC50/IC50), promastigotes",[4],2.60
same,IC50,[4],10.35 ± 0.01 µM
same,CC50 at 48 h,[5],26.88 ± 0.02 µM
same,decrease in the expression of RNR,[6],80 % reduction
same,RNR Relative quantity,[6],0.2
